Legend:
[1] = LNP particle size and polydispersity (ZetaSizer); type: physicochemical; conditions: for Particle Size (nm): mCherry mRNA LNP, 50 mol % ICL, N/P 5, DSPC 10, cholesterol 38.5, PEG-DMG 1.5 mol %; for Particle Size (nm) Post-Freeze/Thaw / Polydispersity Index PDI: same LNPs; for Particle Size (nm) Post-Freeze/Thaw: Table 4, post freeze/thaw
Experimental: (§1) • 5. The number of wells used on each plate was counted and 4 was added to this number. For plate B, PBS was prepared with Ribogreen diluted 1:100. For example, for 40 wells, 44 was used as the number. 44×60 μL=2.64 mL Ribogreen solution needed, so that would be 2.61 mL PBS with 26.4 μL Ribogreen. • 6. For plate C, 2.61 mL Dissociation buffer and 26.4 uL Ribogreen was pipetted. • 7. Using a repeater pipette set for 60 μL, PBS+RiboGreen was added to each well on plate B and 60 μL Dissociation Buffer+Ribogreen to plate C. Both plates B and C were mixed on an orbital mixer (120 rpm) for 1 min. Plate B was placed in the dark for 15 min. Plate C was incubated at 37° C. in the dark for 10 min, followed by 5 min at RT. • 8. Both plates were read one after the other, using Ex. 465, Em. 530 nm • 9. Using the standard curve, the slope and intercept were calculated and by extrapolation the mRNA concentrations of the samples on plate B & C were calculated (average and std.dev) • 10. Percent encapsulation efficiency (% EE) by [mRNA] plate B/[mRNA] plate C×100 was calculated • 11. Total [mRNA] by taking [mRNA] plate C×dilution factor was calculated. B. LNP Particle Size • 1. […] C. LNP Zeta Potential • 1.

[2] = mRNA encapsulation efficiency by Ribogreen fluorescent binding dye; type: physicochemical; conditions: same LNPs; for Encapsulation Efficiency (%): Table 4; for % Encapsulation ± SD: Table 3
Experimental: A. mRNA Concentration and Relative Encapsulation Efficiency Determination by Fluorescent Binding Dye
• Materials: Ribogreen reagent (Thermo #11491), 3×96-well plates with lids, PBS, dissociation buffer (PBS with 10% DMSO and 1% (wt/wt) Zwittergent 3-14 (Sigma-Aldrich #693017), mRNA, general pipette tips & repeater pipette tips. • 1. 5 mL of 2 μg/mL mRNA stock were prepared in DPBS or PBS • 2. Diluted standards were prepared as follows in single wells in a 96-well plate (Plate A);
• 3. Using different wells in Plate A, samples were diluted to be within the standard curve, you'll need one well per sample. For example, if the approximate mRNA concentration should be ˜30 ug/mL in the sample, a 20× dilution was performed (Dilution Factor). (20 uL sample added to 380 μL PBS in a well). No lid was used on plate A. Samples were mixed by gentle pipetting up & down.
• 4. Two more plates, plates B & C were used. Using a multichannel pipettor, 60 μL of each standard 2 were pipetted into wells each (duplicate), and sample into 3 wells each (triplicate)
as §1

[3] = LNP zeta potential (ZetaSizer Pro); type: physicochemical; conditions: same LNPs; for Zeta Potential mV, pH 5: Table 4, pH 5; for Zeta Potential mV, pH 7: Table 4, pH 7
[4] = Accelerated oxidation with H2O2/Fe(III)Cl, main lipid peak by UHPLC-CAD; type: physicochemical; conditions: for % of parent lipid peak at time 0, 24 h / % of parent lipid peak at time 0, 48 h / % of parent lipid peak at time 0, 72 h: 1% H2O2, 100 μM Fe(III)Cl, 37° C.; for stability under accelerated oxidation with hydrogen peroxide: compared to counterparts with a single methylene separating the two olefins
Experimental: Individual lipid stocks (10 mM) were prepared in ethanol and stored at −20° C. […] Liposomal formulations based on AKG-UO-1 and 0-11769 ionizable cationic lipids (Table 5) were prepared by combining lipid mixtures of desired composition in 1 mL ethanol with 3 mL 6.25 mM sodium acetate, pH 5.0 at 6 mL/min on a NanoAssemblr (Precision Nanosystems). 3.6 mL of the mixture was retained, while the initial 0.35 mL of the mixture and final 0.05 mL were discarded. Ethanol was removed by buffer exchange into PBS, pH 7.4 by concentrating each liposome preparation using an Aminon-Ultra 4 centrifugal concentrator at 500 g for 10 min at 4° C. and diluting back to the original volume with PBS. This cycle was repeated multiple times until the ethanol concentration was <1%. Finally, liposomes were sterile filtered through 0.2 μm PES (Nalgene) syringe filters and size measured by a ZetaSizer (Malvern).
Aliquots of the liposomal formulations were stored at −80° C. and thawed before the experiment. A combined stock in water of 10% H2O2 (Sigma-Aldrich, cat #H1009) and 1 mM of Fe(III)Cl (Sigma-Aldrich, cat #372870) was freshly prepared prior to the treatment. To make 1% final concentration of H2O2 and 100 μM Fe(III)Cl, 10 μl of 10% H2O2/1 mM Fe(III)Cl stock was added to 90 μl of both liposomal formulations and individual lipids The liposomes and individual lipids were incubated with H2O2/Fe(III)Cl at 37° C. and then 5 μl from each sample was taken at different time points (0, 3, 24, 48 and 72 hours) and dissolved in 90 μl of MeOH for HPLC analysis. Degradation of the main lipid peak was analyzed using Thermo Scientific Vanquish Flex UHPLC occupied with Charged Aerosol Detector (CAD) and Thermo Scientific Accucore™ C18+ UHPLC column (L=50 mm, D=2.1 mm, Particle Size=1.5 μm).
The data are presented as a percentage of the main lipid peak measured at different time points relative to the lipid peak measured at time zero.

[5] = tested on: MutuDC1940 cells; experiment: Transfection efficiency of mCherry mRNA LNPs in murine dendritic cells; type: cell-based; conditions: LNPs 1 μg/mL, 24h
Experimental: A. Cell Propagation, Transfection, Harvesting and Staining Protocol
• 1. MutuDC1940 cells (ABM) were grown according to supplier's instructions in T75 flasks.
When required, they were plated at 180,000 cells/well into 24-well plate one day prior to transfection. • 2. LNPs were added in triplicate to each well at 1 μg/mL in 1 mL media and after 24h the cells were washed once with DPBS (VWR 02-0119-1000). • 3. 0.2 mL of DPBS (plus 5 mM EDTA, pH 7.4) was then added to facilitate detachment. • 4. The cells were placed at 37° C. for 3 min, until detached. • 5. 0.5 ml DPBS added to each well and the liquid transferred to a flow cytometry tube (Falcon 5 mL #352054) • 6. The tube was centrifuged at 1100 rpm for 3-5 min and the liquid poured off • 7. 100 μL of Zombie Violet (Biolegend) (diluted 1:500 in PBS) was added to each tube • 8. The tubes were gently tapped to resuspend cells and placed in the dark for 15 min at RT • 9. To the cells 0.5 mL of (paraformaldehyde 4% in PBS:DPBS 1:1) was added and the cells flicked gently to resuspend and put on ice for 30 min. Another 2 ml PBS was added. • 10. The cells were pelleted as above and resuspended in 0.5 mL DPBS with 5% BSA and placed in the fridge until needed. B. Cell Analysis • 1. Cells suspensions were analyzed by an Attune NxT flow cytometer using the VL1 and YL2 for live/dead and mCherry fluorescence signals respectively. Gating analysis was performed on FloJo software.

Structure (SMILES)	Particle Size (nm) ([1]; Table 4)	Particle Size (nm) Post-Freeze/Thaw [1] [nm]	Encapsulation Efficiency (%) [2] [%]	Zeta Potential mV, pH 5 [3] [mV]	Zeta Potential mV, pH 7 [3] [mV]	degradation after 48 hours of incubation with hydrogen peroxide [4]	% of parent lipid peak at time 0, 24 h ([4]; ICL lipid suspensions) [%]	% of parent lipid peak at time 0, 48 h ([4]; ICL lipid suspensions) [%]	% of parent lipid peak at time 0, 72 h ([4]; ICL lipid suspensions) [%]	% of parent lipid peak at time 0, 72 h ([4]; Liposome preparations) [%]	Particle Size (nm) ([1]; Table 3)	Polydispersity Index PDI ([1]; Table 3)	% Encapsulation ± SD [2] [%]	stability under accelerated oxidation with hydrogen peroxide [4]	fold higher mCherry expression than KC2 ([5]; relative to KC2 LNP) [fold]	fold higher mCherry expression than KC3 ([5]; relative to KC3 LNP) [fold]	fold higher mCherry expression than LNPs incorporating 0-11769 ([5]; relative to 0-11769 LNP) [fold]
CCCCCCCC/C=C\CCCCCCCC(=O)OC[C@H](CCN(C)C)OC(=O)CCCCCCC/C=C\CCCCCCCC [AKG-DM2-OA]	77.6	111.5	64.9 ± 3.4	19.1	2.2	–	–	–	–	–	–	–	–	–	–	–	–
CCCCC/C=C\CCCC/C=C\CCCCC(=O)OC[C@H](CCN(CC)CC)OC(=O)CCCC/C=C\CCCC/C=C\CCCCC [AKG-UO1A, (S)-4-(diethylamino)butane-1,2-diyl (6Z,6′Z,12Z,12′Z)-bis(octadeca-6,12-dienoate)]	84.4	103.2	77.5 ± 0.9	28.0	−0.9	–	–	–	–	–	–	–	–	–	–	–	–
CCCCCCCC/C=C\CCCCCCCC(=O)OC[C@H](CN(C)C)OC(=O)CCCCCCC/C=C\CCCCCCCC [DODAP, reference compound]	69.8	68.2	83.4 ± 7.7	10.2	−0.7	–	–	–	–	–	–	–	–	–	–	–	–
CCCCC/C=C\CCCC/C=C\CCCCCC1(CCCCC/C=C\CCCC/C=C\CCCCC)OC[C@H](CCN(C)C)O1 [KC2-01, 2-((S)-2,2-di((6Z,12Z)-octadeca-6,12-dien-1-yl)-1,3-dioxolan-4-yl)-N,N-dimethylethan-1-amine]	–	–	–	–	–	–	–	–	–	–	70.7	0.06	88.9 ± 1.6	dramatically superior stability	4.4	–	–
CCCCC/C=C\CCCC/C=C\CCCCCC1(CCCCC/C=C\CCCC/C=C\CCCCC)OC[C@H](CCCN(C)C)O1 [KC3-01, 3-((S)-2,2-di((6Z,12Z)-octadeca-6,12-dien-1-yl)-1,3-dioxolan-4-yl)-N,N-dimethylpropan-1-amine]	–	–	–	–	–	–	–	–	–	–	91.6	0.03	88.9 ± 2.7	dramatically superior stability	–	3.4	–

Continued, in another order:

Particle Size (nm) ([1]; Table 4)	Particle Size (nm) Post-Freeze/Thaw [1] [nm]	Encapsulation Efficiency (%) [2] [%]	Zeta Potential mV, pH 5 [3] [mV]	Zeta Potential mV, pH 7 [3] [mV]	degradation after 48 hours of incubation with hydrogen peroxide [4]	% of parent lipid peak at time 0, 24 h ([4]; ICL lipid suspensions) [%]	% of parent lipid peak at time 0, 48 h ([4]; ICL lipid suspensions) [%]	% of parent lipid peak at time 0, 72 h ([4]; ICL lipid suspensions) [%]	% of parent lipid peak at time 0, 72 h ([4]; Liposome preparations) [%]	Particle Size (nm) ([1]; Table 3)	Polydispersity Index PDI ([1]; Table 3)	% Encapsulation ± SD [2] [%]	stability under accelerated oxidation with hydrogen peroxide [4]	Structure (SMILES)	fold higher mCherry expression than KC2 ([5]; relative to KC2 LNP) [fold]	fold higher mCherry expression than KC3 ([5]; relative to KC3 LNP) [fold]	fold higher mCherry expression than LNPs incorporating 0-11769 ([5]; relative to 0-11769 LNP) [fold]
83.0	89.6	87.5 ± 2.7	17.1	4.1	fully degraded	31 ± 0.9	1 ± 0.2	0.3 ± 0.1	3.9±0.06	–	–	–	–	CCCCC/C=C\C/C=C\CCCCCCCC(=O)OC[C@H](CCN(C)C)OC(=O)CCCCCCC/C=C\C/C=C\CCCCC [Compound O-11769, reference compound]	–	–	–
–	–	–	–	–	fully degraded	–	–	0 ± 0.0	–	93.7	0.01	68.2 ± 3.7	–	CCCCC/C=C\C/C=C\CCCCCCCCC1(CCCCCCCC/C=C\C/C=C\CCCCC)OCC(CCN(C)C)O1 (centres unmarked) [KC2, reference compound]	–	–	–
–	–	–	–	–	fully degraded	–	–	0 ± 0.0	–	101.5	0.23	87.0 ± 2.3	–	CCCCC/C=C\C/C=C\CCCCCCCCC1(CCCCCCCC/C=C\C/C=C\CCCCC)OCC(CCCN(C)C)O1 (centres unmarked) [KC3, reference compound]	–	–	–
98.0	122.6	75.4 ± 2.2	21.9	2.3	–	78 ± 0.6	74 ± 0.1	65 ± 2.5	73±0.05	–	–	–	dramatically superior stability	CCCCC/C=C\CCCC/C=C\CCCCC(=O)OC[C@H](CCN(C)C)OC(=O)CCCC/C=C\CCCC/C=C\CCCCC [UO-1, (S)-4-(dimethylamino)butane-1,2-diyl (6Z,6′Z,12Z,12′Z)-bis(octadeca-6,12-dienoate)]	–	–	4.2

Source: US12606773B2, “Ionizable cationic lipids” (Akagera Medicines, Inc., priority 2020, dated 2026)
